# Experimental data from patent US20250101436A1, “APTAMERS AND SMALL MOLECULE LIGANDS” (MeiraGTx UK II Limited, priority 2021, published 2025).
# Tests used:
# N5-12G6 riboswitch = test: Firefly luciferase assay, N5-12G6 riboswitch in HEK293 cells; details: N5-12G6, 0.1 μM Comp. 004
# N5-12E5 riboswitch = test: Firefly luciferase assay, N5-12E5 riboswitch in HEK 293 cells; format: cell-based, human; details: N5-12E5, 0.1 μM Comp. 004
# Protocol: (§4) Transfection: 3.5×10^4 human embryonic kidney (HEK) 293 cells were plated in a 96-well flat bottom plate the day before transfection. Plasmid DNA (500 ng) was added to a tube or a 96-well U-bottom plate. Separately, TransIT-293 reagent (Mirus; 1.4 L) was added to 50 μL Optimum I media (Life Technologies) and allowed to sit for 5 minutes at room temperature (RT). Then, 50 μL of this diluted transfection reagent was added to the DNA, mixed, and incubated at RT for 20 min. Finally, 7 μL of this solution was added to a well of cells in the 96-well plate. Four hours after transfection, medium containing transfection solution was replaced by medium with either TPP or fursultiamine as aptamer ligands.
# (§5) Firefly luciferase assay of cultured cells: Twenty-four hours after media change, plates were removed from the incubator, and equilibrated to RT for several minutes on a lab bench, then aspirated. […] Following a 5 min incubation at RT, luminescence was measured using a Tecan machine with 500 ms read time. The luciferase activity was expressed as mean arbitrary light units (ALU)±S.D., and fold induction was calculated as the quotient of the luciferase activity obtained from cells with TPP or analog compound treatment divided by the luciferase activity obtained from cells without TPP or analog compound treatment.
# 12C6-1 riboswitch = test: Firefly luciferase assay, Luci-12C6-1 riboswitch construct in transfected HEK 293 cells; format: cell-based, human; details: Luci-12C6-1, HEK 293, 50 uM Comp. 004
# Description: Riboswitch construct: Aptamers were synthesized by Integrated DNA Technologies, Inc. The synthesized aptamer sequence, here referred to as aptamer sequence 12C6-1, contains a putative TPP aptamer sequence (AP008955.1/944373-944459; CP030117.1/954080-954166; CP023474.1/977011-977097) with C at 5′ end and a complementary G at 3′ end flanking the putative TPP aptamer sequence: […] […] (SEQ ID NO: 1). Golden Gate cloning strategy (New England Biolabs, NEB) was used to clone the synthesized aptamer sequences into an intron-exon-intron cassette to replace the guanine aptamer in the G17 riboswitch cassette (see SEQ ID NO: 15 recited in WO 2016/126747, which is incorporated herein in its entirety) to generate riboswitch construct Luci-12C6-1.
# [1] = system: hGH-12G6 (N5-12G6 riboswitch in hGH gene); test: ELISA for human growth hormone, hGH-12G6 construct in HEK 293 cells; format: cell-based; details: HEK 293, hGH-12G6, 3.1 μM Comp. 004
# Description: (§1) Riboswitch constructs: The alternative splicing riboswitch cassette containing aptamers N5-12G6 or N4-1C11 was inserted between nucleotide position 307 and 308 in the mouse erythropoietin cDNA sequence, generating constructs mEpo-12G6 and mEpo-1C11. Expression of the erythropoietin gene was driven by CASI promoter. The intron-exon-intron cassette without aptamer sequence was inserted at the same position in the cDNA of mEpo gene to create construct mEpo-Con1, serving as a control for constitutive target gene expression. N5-12G6 riboswitch cassette was inserted between nucleotide position 424 and 425 in the cDNA of human growth hormone (hGH) gene driven under CMV promoter.
# ELISA for human growth hormone (hGH): HEK 293 cells were transfected as described in Example 1 with TransIT-293 transfection reagent (Mirus Bio). Four hours after transfection, the transfected cells were treated with or without Comp. 004 at the indicated doses. The supernatants from the transfected cells were collected 24 hours after Comp. 004 treatment and were subjected to ELISA for the detection of hGH in the supernatant following the manufacturer's instruction (R&D Systems).
# [2] = system: hematocrit of anemic mice; test: Hematocrit in mouse model of chronic kidney disease (CKD)-associated anemia with AAV8.mEpo.12G6; format: in vivo; details: for hematocrit: 300 mg/kg for 15 days and 10 doses
# Protocol: Chronic kidney disease-associated anima: male C57Bl/6 mice were injected intramuscularly with 2.5×10^10 vg or 1.0×10^10 vg of AAV8.mEpo.12G6 per mouse. One week post AAV injection, mice were treated daily with 50 mg/kg adenine (Sigma) via oral gavage for total 28 treatment in 5 weeks. Hematocrit was measured after Adenine treatment and before small molecule inducer treatment and monitored every 7 to 10 days post daily small molecule inducer oral dosing.
# [3] = system: Alishewanella tabrizica thiC aptamer in TPPz riboswitch; test: Firefly luciferase assay, TPPz riboswitch construct in HEK 293 cells; format: cell-based, human; details: HEK 293, 50 μM Comp. 004
# Protocol: (§2) First, the E. coli thiM TPP aptamer, the aptamer that was used in Weeks' work in generating the Comp. 004, was tested in TPPm riboswitch construct (SEQ ID No. 87 as described in 62/994,135) for its response to Comp. 004 in inducing gene expression. To evaluate whether this novel TPP aptamer binder could bind a different TPP aptamer, TPP aptamer from Alishewanella tabrizica thiC gene (Microbiol Res. 2017 January; 195:71-80) was tested in TPPz riboswitch construct (SEQ ID No. 86 as described in 62/994,135).
# [4] = system: E. coli thiM TPP aptamer in TPPm riboswitch; test: Firefly luciferase assay, TPPm riboswitch construct in HEK 293 cells; format: cell-based, human; details: HEK 293, 50 μM Comp. 004
# Protocol: as §2
# [5] = system: AAV9.hPTH-12G6 hPTH expression; test: hPTH production and serum calcium in mice injected intramuscularly with AAV9.hPTH-12G6, oral Comp. 004; format: in vivo; details: oral 30, 100 or 300 mg/kg for 3 days
# Protocol: AAV2.9 viral particle production: The AAV9 particles used for the transduction of mice comprised a viral genome derived from AAV2 (ITR) and a capsid derived from AAV9. The hPTH-12G6 was cloned into AAV plasmid backbone with CASI promoter, and the AAV plasmid was packaged into AAV9 capsid, generating vector AAV9.hPTH-12G6 (Signagen)
# Animal study: C57BL/6 mice were injected intramuscularly with AAV9.hPTH-12G6 at 2.5×10^11 viral genome (VG) per mouse of the AAV9 viral particle into both quadriceps. Compound 004 was formulated in 0.5% methylcellulose (MC): 0.25% Tween® 80 in deionized (DI) water for oral administration. 30 days after AAV vector delivery, mice were treated orally via oral gavage with 0 mg/kg, 30 mg/kg, 100 mg/kg or 300 mg/kg Comp. 004 for 3 days.
# [6] = system: hPTH-12G6 (N5-12G6 riboswitch in hPTH gene); test: ELISA for human PTH, hPTH-12G6 construct in HEK 293 cells; format: cell-based; details: HEK 293, hPTH-12G6
# Description: Riboswitch constructs: Alternative splicing riboswitch cassette containing aptamers N5-12G6 was inserted between nucleotide position 181 and 182 in human parathyroid hormone (hPTH) cDNA sequence, generating constructs hPTH-12G6. Expression of the erythropoietin gene was driven by CASI promoter.
# (§3) Enzyme-linked immunosorbent assay (ELISA) for human PTH: HEK 293 cells were transfected as described in Example 1 with TransIT-293 transfection reagent (Mirus Bio). Four hours after transfection, the transfected cells were treated with or without Compound 004 at the indicated doses. The supernatants from the transfected cells were collected 48 hours after compound treatment and were subjected to ELISA for the detection of human PTH in the supernatant following the manufacturer's instruction (Abcam).
# [7] = system: mEpo-12G6 (N5-12G6 riboswitch in mEpo gene); test: ELISA for mouse erythropoietin, construct mEpo-12G6 in AML12 cells; format: cell-based; details: mEpo-12G6, 1.85 μM Comp. 004
# Description: as §1
# as §3, with “mouse erythropoietin (mEpo): AML-12 cells or C2C12” for “human PTH: HEK 293”, “TransIT-X2” for “TransIT-293”, “Comp.” for “Compound”, “24” for “48”, “mEpo” for “human PTH”, “(R&D).” for “(Abcam).”
# [8] = system: AAV8.mEpo.12G6 mEpo expression; test: Serum mouse Epo ELISA in mice injected in the muscle with AAV8.mEpo.12G6, oral Comp. 004; format: in vivo; details: 1×10^11 GC AAV8 in the muscle, 30 mg/kg oral
# Protocol: For regulated mouse erythropoietin (mEpo) study, each female Balb/c mouse was injected in the quadricep muscle with 1.0×10^11, 5×10^10, 1×10^10, or 5×10^9 GC of AAV8 vectors containing riboswitch N5-12G6 regulated mEpo gene (AAV8.mEpo.12G6). 5 weeks post AAV injection, mice were treated with Comp. 004 formulated in 0.5% methylcellulose (MC): 0.25% Tween® 80 in deionized (DI) water via oral gavage. 16 hours post oral dosing, mice were subjected to submandibular blood collection. 10 fold diluted serum was used to measure mouse serum Epo using ELISA (Invitrogen).
# [9] = system: mEpo-1C11 (N4-1C11 riboswitch in mEpo gene); test: ELISA for mouse erythropoietin, construct mEpo-1C11 in AML12 cells; format: cell-based; details: mEpo-1C11, 1.85 μM Comp. 004
# Description: as §1
# as §3, with “mouse erythropoietin (mEpo): AML-12 cells or C2C12” for “human PTH: HEK 293”, “TransIT-X2” for “TransIT-293”, “Comp.” for “Compound”, “24” for “48”, “mEpo” for “human PTH”, “(R&D).” for “(Abcam).”
# N4-1C11 riboswitch = test: Firefly luciferase assay, N4-1C11 riboswitch in HEK 293 cells; format: cell-based, human; details: N4-1C11, 0.1 μM Comp. 004
# Protocol: as §4, §5
# [10] = system: riboswitch regulatable mEpo constructs; test: ELISA for mouse erythropoietin, riboswitch regulatable mEpo constructs in C2C12 cells; format: cell-based
# Description: as §1
# as §3, with “mouse erythropoietin (mEpo): AML-12 cells or C2C12” for “human PTH: HEK 293”, “TransIT-X2” for “TransIT-293”, “Comp.” for “Compound”, “24” for “48”, “mEpo” for “human PTH”, “(R&D).” for “(Abcam).”
structure (smiles),measurement,setting,value
c1cc(N2CCNCC2)c(NCc2ccc3nccnc3c2)cn1 [Comp. 004],fold increase in luciferase expression,N5-12G6 riboswitch,36 fold
same,fold increase in luciferase expression,N5-12E5 riboswitch,8 fold
same,fold increase in luciferase expression,12C6-1 riboswitch,360 fold
same,fold of the hGH expression from cells without compound treatment,[1],approximately 243 fold
same,hGH expressed,[1],202 ng/mL
same,hematocrit,[2]; AAV 1×10^10 vg per mouse,restored to normal level
same,hematocrit,[2]; AAV 2.5×10^10 vg per mouse,exceeded the normal hematocrit level
same,hematocrit of anemic mice,"[2]; after 20 oral doses, biggest increase in the 100 mg/kg dose group",increased
same,fold increase in luciferase expression,[3],26 fold
same,increase in luciferase expression,[4],4.1
same,production of hPTH in mice,[5],induced dose-dependent production of hPTH
same,serum calcium concentration,[5],increase in the serum calcium concentration
same,hPTH expression,[6],dose dependent manner
same,fold induction of mEpo expression,[7],about 148 fold
same,serum vector-expressed mEpo,[8],elevated
same,fold induction of mEpo expression,[9],~71 fold
same,fold increase in luciferase expression,N4-1C11 riboswitch,16 fold
same,mEpo expression,[10],induced upon treatment of Comp. 004 in a dose dependent manner
